# Patent US9801961B2, “2-phenylimidazo[1,2-a]pyrimidines as imaging agents” (Hoffmann-La Roche Inc., priority 2013, dated 2017)
# Tested on: native tau aggregates
# Test: TAU radioligand in vitro displacement assay ([3H]T808 autoradiography on human AD brain sections)
# Type: binding
# Settings: radioligand [3H]T808 10 nM, 50 mM Tris pH 7.4, room temperature, 30 min; for % displacement of [3H]T808 (10 nM) at 10 nM: compound 10 nM; for % displacement of [3H]T808 (10 nM) at 1 uM: compound 1 uM
# Procedure: TAU Radioligand-In-Vitro Displacement Assay
# This in vitro binding assay assesses the affinity of compounds for native tau aggregates. The compounds are co-incubated with the well-established tau specific radioligand [^3H]T808 and the compound's displacement potency of [^3H]T808 binding is determined by in vitro autoradiography using human Alzheimer's disease (AD) brain sections (FIG. 1).
# AD human brains are purchased from Banner Sun Health Research Institute (Sun City, Ariz., USA). Pathological diagnosis of AD is made according to standard NIA-Reagan Institute criteria based on neuropathological data. The radioligand [^3H]T808 was synthesized in-house ([^3H]-2-[4-(2-Fluoro-ethyl)-piperidin-1-yl]-benzo[4,5]imidazo[1,2-a]pyrimidine, radiochemical purity 99.0%). As a reference cold T808 is used (2-[4-(2-Fluoro-ethyl)-piperidin-1-yl]-benzo[4,5]imidazo[1,2-a]pyrimidine). For the autoradiography FujiFilm Imaging Plates (BAS-IP TR 2025) are exposed to the sections and read with a FujiFilm IP reader (BAS-5000).
# Ten μm thick human AD brain sections are generated with a cryostat (Leica CM3050) at −17° C. chamber temperature and −15° C. object temperature. Sections are transferred to Histobond+microscope slides (Marienfeld Laboratory Glasware). After drying for 3 hours at room temperature the sections are stored at −20° C. The sections are incubated with the radioligand (10 nM) and the respective cold compound (at various concentrations) in 50 mM Tris buffer, pH 7.4 at room temperature for 30 min. After washing 3×10 min at 4° C. in 50 mM Tris buffer, pH 7.4 and 3 quick dips in H2O dist. at 4° C. the sections are dried at 4° C. for 3 h. The sections are placed in a FujiFilm Cassette (BAS 2025), exposed with an Imaging Plate for five days and afterwards scanned with a resolution of […].
# The signal intensity (Dens—PSL/mm2) in the region of interest (ROI) of the autoradiogram is quantified with the software MCID analysis (version 7.0, Imaging Research Inc.). The specific binding (SB) of [^3H]T808 binding in absence or in presence of a compound is calculated by subtracting the non-specific binding signal in the white matter, thus yielding SB[3H]T808 only and SBcompund. The % displacement by the various compounds is calculated as following: % displacement=100−(SBcompund/SB[3H]T808 only)*100.
# In each experiment cold T808 is used as a positive internal control. Co-incubation of equimolar amounts of hot and cold T808 is expected to reduce specific binding by approximately 50%.
SMILES,% displacement of [3H]T808 (10 nM) at 10 nM [%],% displacement of [3H]T808 (10 nM) at 1 uM [%]
"CN(C)c1ccn2cc(-c3ccsc3)nc2n1 [Example 85, N,N-Dimethyl-2-thiophen-3-ylimidazo[1,2-a]pyrimidin-7-amine]",35,–
"CNc1ccn2cc(-c3ccc(OCF)cc3)nc2n1 [Example 132, 2-(4-(Fluoromethoxy)phenyl)-N-methylimidazo[1,2-a]pyrimidin-7-amine]",36,–
"Cc1cccc(-c2cn3ccc(N(C)C)nc3n2)c1 [Example 40, N,N-Dimethyl-2-(3-methylphenyl)imidazo[1,2-a]pyrimidin-7-amine]",51,–
"CN(C)c1ccc(-c2cn3ccc(N(C)CCF)nc3n2)cc1 [Example 92, 2-[4-(Dimethylamino)phenyl]-N-(2-fluoroethyl)-N-methylimidazo[1,2-a]pyrimidin-7-amine]",27,–
"COc1ccc(-c2cn3ccc(NC4CC4)nc3n2)cc1 [Example 76, N-Cyclopropyl-2-(4-methoxyphenyl)imidazo[1,2-a]pyrimidin-7-amine]",43,–
"CN(CCF)c1ccn2cc(-c3ccc4c(c3)OCO4)nc2n1 [Example 87, 2-(1,3-Benzodioxol-5-yl)-N-(2-fluoroethyl)-N-methylimidazo[1,2-a]pyrimidin-7-amine]",15,–
"CN(C)c1ccc(-c2cn3ccc(N4CCOCC4)nc3n2)cc1 [Example 74, N,N-Dimethyl-4-(7-morpholin-4-ylimidazo[1,2-a]pyrimidin-2-yl)aniline]",16,–
"CN(C)c1ccn2cc(-c3ccc4c(c3)OCO4)nc2n1 [Example 37, 2-(1,3-Benzodioxol-5-yl)-N,N-dimethylimidazo[1,2-a]pyrimidin-7-amine]",46,–
"Cc1cccc(-c2cn3ccc(N4CCC(F)CC4)nc3n2)c1 [Example 10, 7-(4-Fluoropiperidin-1-yl)-2-(3-methylphenyl)imidazo[1,2-a]pyrimidine]",–,79
"FCCOc1ccc(-c2cn3ccc(N4CCC4)nc3n2)cc1 [Example 111, 7-(Azetidin-1-yl)-2-(4-(2-fluoroethoxy)phenyl)imidazo[1,2-a]pyrimidine]",25,–
"CN(CCF)c1ccn2cc(-c3ccccc3)nc2n1 [Example 21, N-(2-Fluoroethyl)-N-methyl-2-phenylimidazo[1,2-a]pyrimidin-7-amine]",–,84
"COc1cccc(-c2cn3ccc(N4CCOCC4)nc3n2)c1 [Example 41, 4-[2-(3-Methoxyphenyl)imidazo[1,2-a]pyrimidin-7-yl]morpholine]",16,–
"FC1CCN(c2ccn3cc(-c4nc5ccccc5s4)nc3n2)CC1 [Example 79, 2-[7-(4-Fluoropiperidin-1-yl)imidazo[1,2-a]pyrimidin-2-yl]-1,3-benzothiazole]",12,–
"CNc1ccn2cc(-c3ccc4c(c3)OCO4)nc2n1 [Example 84, 2-(1,3-Benzodioxol-5-yl)-N-methylimidazo[1,2-a]pyrimidin-7-amine]",28,–
"FC1CCN(c2ccn3cc(-c4cc5ccccc5o4)nc3n2)CC1 [Example 73, 2-(1-Benzofuran-2-yl)-7-(4-fluoropiperidin-1-yl)imidazo[1,2-a]pyrimidine]",19,–
"CN(C)c1ccn2cc(-c3ccc(CO)cc3)nc2n1 [Example 135, [4-[7-(Dimethylamino)imidazo[1,2-a]pyrimidin-2-yl]phenyl]methanol acetic acid adduct]",18,–
"CO[C@@H]1CCN(c2ccn3cc(-c4ccccc4)nc3n2)C1 [Example 31, 7-[(3R)-3-Methoxypyrrolidin-1-yl]-2-phenylimidazo[1,2-a]pyrimidine]",7,–
"COc1ccc(-c2cn3ccc(N(C)CCOCCF)nc3n2)cc1 [Example 64, N-[2-(2-Fluoroethoxy)ethyl]-2-(4-methoxyphenyl)-N-methylimidazo[1,2-a]pyrimidin-7-amine]",15,–
